As usually defined, the MIC is the lowest concentration found to suppress growth.

≈ marks a conversion by molar mass, not a printed value.

Series [1] concerns Mycobacterium tuberculosis. Put plainly: Antimycobacterial activity against Mycobacterium tuberculosis H37Rv ATCC 27294 incubated for 5 days by alamar blue based colorimetric assay. The series is classed as functional. The settings on record: H37Rv ATCC 27294, 120 h.
A short description of series [2]: Cytotoxicity against monkey Vero cells assessed as cell viability at 50 ug/ml by WST-1 assay relative to control. The format is cell-based. The settings on record: chlorocebus sabaeus, read-out: Activity.
Series [3] in a line: Cytotoxicity against monkey Vero cells assessed as cell viability at 100 ug/ml by WST-1 assay relative to control. The series is classed as cell-based. The note with it: chlorocebus sabaeus, read-out: Activity.

`COC(=O)c1coc(/C=C/c2ccc(OC)cc2)n1` gave an MIC in series [1] of 24.1 µM (≈ 6.25 µg/mL). Moreover, in series [2], the viability at 50 ug/ml is 99.6%. Moreover, the viability at 100 ug/ml in series [3] stood at 96.8%.
In series [1], `Cc1ccc(/C=C/C(=O)O/C(=N/C2CCCCC2)NC2CCCCC2)cc1` came in with an MIC above 271 µM. Also, in series [2], the viability at 50 ug/ml was 79.3%. In series [3], the viability at 100 ug/ml turned out to be 95.5%.
For the molecule `COC(=O)[C@@H]1COC(/C=C/c2ccccc2)=N1`, in series [1], it took 54.1 µM (≈ 12.5 µg/mL) to inhibit growth (MIC). Besides, the viability at 50 ug/ml in series [2] was 68.6%. For the same molecule, the viability at 100 ug/ml in series [3] amounted to 12.4%.
`COC(=O)[C@H](CO)NC(=O)/C=C/c1ccc(F)cc1` returned an MIC in series [1] above 374 µM.
`O=C(/C=C/c1ccccc1)O/C(=N/C1CCCCC1)NC1CCCCC1`: the MIC in series [1] was above 282 µM. For the same molecule, the viability at 50 ug/ml in series [2] was determined as 83.9%. Besides, the viability at 100 ug/ml in series [3] amounted to 83.8%.
Regarding `COC(=O)[C@@H]1COC(/C=C/c2ccc(OC)cc2)=N1`, the minimum inhibitory concentration (MIC) in series [1] stood at 23.9 µM (≈ 6.24 µg/mL). Besides, in series [2], the viability at 50 ug/ml was 94.8%. In series [3], the viability at 100 ug/ml worked out at 20.9%.
Taken in the same sequence, the figures for `COC(=O)[C@H](CO)NC(=O)/C=C/c1ccccc1` were above 401 µM, 97.1% and 99.4%.
For the molecule `COC(=O)c1coc(/C=C/c2ccccc2)n1`, the MIC in series [1] was 54.5 µM (≈ 12.5 µg/mL). Further, the viability at 50 ug/ml in series [2] came to 99.6%. The viability at 100 ug/ml in series [3] turned out to be 102%.
The molecule `CC[C@@H](CO)NCCN[C@@H](CC)CO` [ETHAMBUTOL] had an MIC in series [1] of 15.2 µM (≈ 3.11 µg/mL).
Turning to `COC(=O)[C@H](COC(=O)/C=C/c1ccc(OC)cc1)NC(=O)/C=C/c1ccc(OC)cc1`, the minimal inhibitory concentration (MIC) in series [1] was 114 µM (≈ 50 µg/mL). Moreover, the viability at 50 ug/ml in series [2] amounted to 39.1%. For the same molecule, in series [3], the viability at 100 ug/ml is 11.4%.
`C[C@H]1COc2c(N3CCN(C)CC3)c(F)cc3c(=O)c(C(=O)O)cn1c23` [LEVOFLOXACIN] displayed an MIC in series [1] of 0.54 µM (≈ 0.195 µg/mL).
In turn, `COC(=O)c1coc(/C=C/c2ccc(F)cc2)n1` yielded a minimum inhibitory concentration (MIC) in series [1] of 12.6 µM (≈ 3.12 µg/mL). Moreover, the viability at 50 ug/ml in series [2] was found to be 102%. In series [3], the viability at 100 ug/ml came out at 99%.
As to `O=C(/C=C/c1ccc(F)cc1)O/C(=N/C1CCCCC1)NC1CCCCC1`, the MIC in series [1] was above 268 µM. Besides, the viability at 50 ug/ml in series [2] worked out at 82.5%. In addition, the viability at 100 ug/ml in series [3] amounted to 85.5%.
Turning to `CO[C@H]1/C=C/O[C@@]2(C)Oc3c(C)c(O)c4c(O)c(c(/C=N/N5CCN(C)CC5)c(O)c4c3C2=O)NC(=O)/C(C)=C\C=C\[C@H](C)[C@H](O)[C@@H](C)[C@@H](O)[C@@H](C)[C@H](OC(C)=O)[C@@H]1C` [RIFAMPIN], inhibition of growth in series [1] (MIC) required 0.06 µM (≈ 0.0494 µg/mL).
In turn, `COC(=O)c1coc(/C=C/c2ccc(C)cc2)n1` had an MIC in series [1] of 3.21 µM (≈ 0.781 µg/mL). The viability at 50 ug/ml in series [2] came out at 102%. In addition, in series [3], the viability at 100 ug/ml turned out to be 100%.
Taken in the same sequence, the figures for `COC(=O)[C@H](CO)NC(=O)/C=C/c1ccc(C)cc1` were above 380 µM, 100% and 101%.
The corresponding values for `COC(=O)[C@@H]1COC(/C=C/c2ccc(F)cc2)=N1` are 50.1 µM (≈ 12.5 µg/mL), 91.6% and 18.6%.
Consider `COC(=O)[C@H](COC(=O)/C=C/c1ccc(C)cc1)NC(=O)/C=C/c1ccc(C)cc1`, for which, in series [1], it took 123 µM (≈ 50 µg/mL) to inhibit growth (MIC). The viability at 50 ug/ml in series [2] was found to be 28.8%. In addition, the viability at 100 ug/ml in series [3] amounted to 18.7%.
`COC(=O)[C@@H]1COC(/C=C/c2ccc(C)cc2)=N1` registered an MIC in series [1] of 25.4 µM (≈ 6.23 µg/mL). Further, the viability at 50 ug/ml in series [2] was 85.1%. Also, the viability at 100 ug/ml in series [3] is 17%.
`COC(=O)[C@H](CO)NC(=O)/C=C/c1ccc(OC)cc1` yielded an MIC in series [1] above 358 µM. Moreover, in series [2], the viability at 50 ug/ml came out at 100%. Besides, the viability at 100 ug/ml in series [3] stood at 103%.
For `COC(=O)[C@H](COC(=O)/C=C/c1ccccc1)NC(=O)/C=C/c1ccccc1`, the MIC in series [1] was above 264 µM. In series [2], the viability at 50 ug/ml was determined as 16.8%. Also, in series [3], the viability at 100 ug/ml was 10.7%.
Take `COC(=O)[C@H](COC(=O)/C=C/c1ccc(F)cc1)NC(=O)/C=C/c1ccc(F)cc1`: in series [1], inhibition of growth (MIC) required 120 µM (≈ 50 µg/mL). The viability at 50 ug/ml in series [2] amounted to 21.1%. In addition, the viability at 100 ug/ml in series [3] came out at 8.65%.
